“Also recorded” adds a separate entry of the source.
Legend:
pig = experiment: Test B. Anesthetized Pig Model (hemodynamic profile); format: in vivo; settings: 20 minute intravenous infusion, data in FIGS. 1 and 2
Protocol: The hemodynamic profile of a compound of the invention can be determined using standard pharmacological models that are well known to the art. The hemodynamic and anesthetic profiles of a compound of the invention can be evaluated simultaneously using an anesthetized pig model (as described in Test B below).
The anesthetic induction was performed using a modification of a technique described by Ko et al (Ko et al., Lab Anim Sci 1993; 43: 476-80) for swine (Telazol, xylazine and ketamine given as an intramuscular injection). The minimal effective dose for induction and tracheal intubation was used. […]
A compound of the invention or propofol was administered intravenously by a 20 minute infusion after the stabilization period through the peripheral IV catheter. […] Blood samples (1 mL each) were collected at pre-dose and at 2, 4, 6, 8, 10, 12, 15, 20, 22, […], 25, 35, 50, 65 and 80 minutes after the start of the first infusion for pharmacokinetic purposes; EEG were recorded continuously as the primary pharmacodynamic endpoint. […]
The EEG signal was fed to a BIS analyzer (Aspect Medical) which provided continuous output of processed EEG data. The output consisted of a “BIS” number calculated by a proprietary algorithm that ranges between 100 (fully conscious) and 0 (isoelectric) and indicated brain activity.
Hemodynamic data were recorded and plotted to assess trends over the drug exposure period. […]

Male Sprague Dawley rats = experiment: Test A. Loss of Righting Reflex Assay with dose escalation to maximum tolerated dose; format: in vivo; settings: rat; for Safety compared with propofol: doses escalated; for Potency compared with propofol: equal dose (7 mg/kg), 7 mg/kg
Excerpt: The ability of a compound of the invention to produce an anesthetic effect (i.e. efficacy) can be determined using standard pharmacological models that are well known to the art. […] The potency of such a compound was compared to the potency of propofol using this assay.
The safety of a compound of the invention can be determined using standard pharmacological models that are well known to the art. […] The safety of such a compound was compared to that of propofol using this assay.
Male Sprague Dawley rats were restrained in a holder, and test compound or propofol was injected in the tail vein (based on milligrams (mg) compound per kilogram (kg) body weight). Following administration, the rats were placed in a dorsal recumbent position on a heating blanket. The time to onset for the loss of the Righting Reflex (RR-ability of rat to right itself) was recorded, as was the duration of the loss of the RR. Doses were escalated until the maximum tolerated doses were achieved.

Row | SMILES | Hemodynamic properties compared with propofol (pig) | Safety compared with propofol (Male Sprague Dawley rats) | Potency compared with propofol (Male Sprague Dawley rats) | Potency compared with propofol (Male Sprague Dawley rats; listed as 2-(1-Ethylpropyl)-6-isopropylphenol) | Outcome: deaths (Male Sprague Dawley rats; tail vein bolus dose 7 mg/kg) | Outcome: minutes of sleep post bolus dose (Male Sprague Dawley rats; tail vein bolus dose 7 mg/kg) | Outcome: deaths (Male Sprague Dawley rats; tail vein bolus dose 14 mg/kg) | Outcome: deaths (Male Sprague Dawley rats; tail vein bolus dose 21 mg/kg)
1 | CCC(CC)c1cccc(C(C)C)c1O [2-(1-ethylpropyl)-6-isopropylphenol] | improved hemodynamic properties | greater safety compared to propofol; also recorded: improved safety | at least equivalent potency | at least equivalent, if not greater, potency than propofol | 0/6 deaths | 9.9 minutes of sleep post | 0/6 deaths | 0/6 deaths
2 | CC(C)c1cccc(C(C)C(C)C)c1O (racemic) [2-(3-methyl)secbutyl-6-isopropylphenol] |  | greater safety compared to propofol; also recorded: improved safety | at least equivalent, if not greater potency than propofol; also recorded: at least equivalent potency |  | 0/6 deaths | 7.5 minutes of sleep post | 0/6 deaths | 0/6 deaths
3 | CC(C)c1cccc(C(C)C)c1O [Propofol, 2,6-diisopropylphenol] |  |  |  |  | 0/10 deaths | 7.1 minutes of sleep post | 6/10 deaths | 4/6 deaths
